The source of these data is patent publication US20030232860A1, “Medicine comprising dicyanopyridine derivative” (priority 2000, published 2003).

Where a name gives a salt, the structure may show the parent alone.

The melting point is the temperature, or range, at which the solid turns liquid. In the case of `COc1nc(OC)c(C#N)c(-c2ccccc2)c1C#N` [Example 358], the melting point is 157 to 159 °C.
`N#Cc1c(N)nc(OCCOC(=O)[C@@H](N)Cc2ccccc2)c(C#N)c1-c1ccccc1` (as salt: hydrochloride) (hydrate or solvate) [Example 15, 2-[(2-amino-3,5-dicyano-4-phenylpyridin-6-yl)oxy]ethyl (S)-2-amino-3-phenylpropanoate monohydrochloride monohydrate] had a melting point of 161 to 162 °C.
Consider `N#Cc1c(N)nc(OCc2cccnc2)c(C#N)c1Cc1ccccc1` [Example 436, 2-amino-4-benzyl-6-(pyridin-3-ylmethoxy)pyridine-3,5-dicarbonitrile], for which the melting point was in the range of 204 to 205 °C.
Compound `CSc1nc(N)c(C#N)c(-c2ccc(C(=O)O)cc2)c1C#N` [Example 29, 4-(2-amino-3,5-dicyano-6-methylsulfanylpyridin-4-yl)benzoic acid] had a melting point of 288 to 290 °C.
`COc1nc(NC(=O)C(C)(C)C)c(C#N)c(-c2ccccc2F)c1C#N` [Example 406, N-[3,5-dicyano-4-(2-fluorophenyl)-6-methoxypyridin-2-yl]-2,2-dimethylpropio namide] displayed a melting point of 162 to 164 °C.
Compound `COCC(=O)Nc1nc(OC)c(C#N)c(-c2ccccc2F)c1C#N` [Example 60, N-[3,5-dicyano-4-(2-fluorophenyl)-6-methoxypyridin-2-yl]-2-methoxyacetamide] came in with a melting point of 168 to 169 °C.
Compound `COc1nc(F)c(C#N)c(-c2ccccc2)c1C#N` [Example 43, 2-fluoro-6-methoxy-4-phenylpyridine-3,5-dicarbonitrile] returned a melting point of 156 to 158 °C.
The same measure for `COc1nc(NC(C)=O)c(C#N)c(-c2c(F)cccc2F)c1C#N` [Example 63, N-[3,5-dicyano-4-(2,6-difluorophenyl)-6-methoxypyridin-2-yl]acetamide]: 200 to 201 °C; for `COc1nc(N(C(C)=O)C(C)=O)c(C#N)c(-c2ccccc2F)c1C#N` [Example 59, 2-diacetylamino-4-(2-fluorophenyl)-6-methoxypyridine-3,5-dicarbonitrile]: 137 to 138 °C; for `CS(=O)(=O)c1nc(N)c(C#N)c(-c2cccs2)c1C#N` [Example 44, 2-amino-6-methanesulfonyl-4-thiophen-2-ylpyridine-3,5-dicarbonitrile]: 233 to 235 °C.
Regarding `COc1nc(N)c(C#N)c(-c2ccnc(N)n2)c1C#N` (as salt: HCl) (hydrate or solvate) [Example 174], the melting point was 80 °C (dec.).
`COc1nc(N)c(C#N)c(-c2cccc(CO)c2)c1C#N` [Example 34, 2-amino-4-[3-(hydroxymethyl)phenyl]-6-methoxypyridine-3,5-dicarbonitrile] displayed a melting point of 218.5 to 219.5 °C.
The compound `N#Cc1cc(C#N)c(Oc2ccccc2)nc1N` [Example 426] gave a melting point of 235 to 237 °C.
With `CSc1nc(Br)c(C#N)c(-c2cccs2)c1C#N` [Example 24, 2-bromo-6-methylsulfanyl-4-thiophen-2-ylpyridine-3,5-dicarbonitrile], the melting point was in the range of 169 to 171 °C.
The same measure for `COc1nc(NC(=O)C2CC2)c(C#N)c(-c2ccccc2F)c1C#N` [Example 70, N-[3,5-dicyano-4-(2-fluorophenyl)-6-methoxypyridin-2-yl] cyclopropanecarboxamide]: 203 to 204 °C.
In turn, `COc1nc(OCCO)c(C#N)c(-c2ccccc2)c1C#N` [Example 33, 2-(2-hydroxyethoxy)-6-methoxy-4-phenylpyridine-3,5-dicarbonitrile] returned a melting point of 170 to 172 °C.
As for `N#Cc1c(N)nc(SCc2cccnc2)c(C#N)c1Cc1ccccc1` [Example 438, 2-amino-4-benzyl-6-[(pyridin-3-ylmethyl)sulfanyl]pyridine-3,5-dicarbonitrile], the figure is 259 to 260 °C; as for `COc1nc(N(C)C)c(C#N)c(-c2ccccc2)c1C#N` [Example 361], 179 to 180 °C.
Compound `N#Cc1c(N)nc(OCc2cccnc2)c(C#N)c1-c1ccccc1` (as salt: HCl) (hydrate or solvate) [Example 208, 2-amino-4-phenyl-6-(pyridin-3-ylmethoxy)pyridine-3,5-dicarbonitrile] showed a melting point of 174 to 175 °C.
Compound `CSc1nc(N)c(C#N)c(-c2ccco2)c1C#N` [Example 84] had a melting point of 229 to 230 °C.
`COc1ncc(C#N)c(-c2ccccc2)c1C#N` [Example 26, 2-methoxy-4-phenylylpyridine-3,5-dicarbonitrile] showed a melting point of 148 to 149 °C.
For the compound `Cl.Cl.N#Cc1c(N)nc(Sc2cccnc2)c(C#N)c1-c1cccc(N)c1`, the melting point is 285 to 288 °C (dec.).
`CCc1c(C#N)c(N)nc(OC)c1C#N` [Example 149] came in with a melting point of 160 to 161 °C.
On to `COc1nc(NC(=O)NCCO)c(C#N)c(-c2ccccc2F)c1C#N` [Example 420, 1-[3,5-dicyano-4-(2-fluorophenyl)-6-methoxypyridin-2-yl]-3-(2-hydroxyethyl)ur ea], for which the melting point was in the range of 140 to 144 °C.
As for `CSc1nc(N)c(C#N)c(-c2ccsc2)c1C#N` [Example 7, 2-amino-6-methylsulfanyl-4-(3-thienyl)pyridine-3,5-dicarbonitrile], the figure is 241 to 243 °C; as for `CCC(=O)N(C(=O)CC)c1nc(OC)c(C#N)c(-c2ccccc2F)c1C#N` [Example 73, 2-dipropanoylamino-4-(2-fluorophenyl)-6-methoxypyridine-3,5-dicarbonitrile], 160 to 161 °C; as for `N#Cc1c(N)nc(N)c(C#N)c1-c1ccccc1` [Example 41, 2,6-diamino-4-phenylpyridine-3,5-dicarbonitrile], greater than 300 °C.
In turn, `COc1nc(N(C(=O)Oc2ccccc2)C(=O)Oc2ccccc2)c(C#N)c(-c2ccccc2F)c1C#N` had a melting point of 156 to 158 °C.
Take `COc1nc(N)c(C#N)c(C2CCCNC2)c1C#N` (stereo not drawn): the melting point is 176 to 178 °C.
For the compound `N#Cc1c(N)nc(-n2ccnc2)c(C#N)c1-c1ccccc1` [Example 211], the melting point is 256 to 258 °C.
The same measure for `COc1nc(N)c(C#N)c(-c2cccc(C#N)c2)c1C#N` [Example 49, 2-amino-4-(3-cyanophenyl)-6-methoxypyridine-3,5-dicarbonitrile]: 298 to 299 °C; for `N#Cc1c(N)nc(Br)c(C#N)c1-c1cccs1` [Example 373]: 312 °C; for `CSc1nc(N)c(C#N)c(-c2cccc(N)c2)c1C#N.Cl`: 277 to 278 °C.
`COc1nc(N)c(C#N)c(-c2c[nH]c3ccccc23)c1C#N` [Example 170]: the melting point was greater than 300 °C.
In turn, `N#Cc1c(N)nc(OCCO)c(C#N)c1-c1ccccc1` [Example 13, 2-amino-6-(2-hydroxyethoxy)-4-phenylpyridine-3,5-dicarbonitrile] returned a melting point of 212 to 214 °C.
Regarding `N#Cc1c(N)nc(Oc2ccccc2CN)c(C#N)c1-c1ccccc1` (as salt: HCl) [Example 201, 2-amino-6-(2-aminomethylphenoxy)-4-phenylpyridine-3,5-dicarbonitrile], the melting point is greater than 300 °C.
In the case of `N#Cc1c(N)nc(Br)c(C#N)c1-c1ccccc1` [Example 178], the melting point is greater than 300 °C.
Compound `CCCCCC(=O)Nc1nc(OC)c(C#N)c(-c2ccccc2F)c1C#N` [Example 407, N-[3,5-dicyano-4-(2-fluorophenyl)-6-methoxypyridin-2-yl]hexanamide] came in with a melting point of 139 to 141 °C.
In turn, `N#Cc1c(N)nc(Oc2ccccc2)c(C#N)c1-c1ccccc1` [Example 194] displayed a melting point of 202 °C.
`CSc1nc(N)c(C#N)c(-c2ccccc2)c1C#N` [Example 76] returned a melting point of 297 °C.
With `CSc1nc(N)c(C#N)c(-c2c[nH]cn2)c1C#N` (as salt: HCl) (hydrate or solvate) [Example 82], the melting point was 272 to 273 °C (dec.).
Compound `N#Cc1c(N)nc(SCc2ccccc2)c(C#N)c1Cc1ccccc1` [Example 437] came in with a melting point of 188 to 189 °C.
The same measure for `COc1nc(NC(=O)c2ccc3ccccc3c2)c(C#N)c(-c2ccccc2F)c1C#N` [Example 411, N-[3,5-dicyano-4-(2-fluorophenyl)-6-methoxypyridin-2-yl]naphthalene-2-carbo xamide]: 227 to 230 °C; for `CC(C)Oc1nc(N)c(C#N)c(-c2ccccc2F)c1C#N` [Example 18, 2-amino-4-(2-fluorophenyl)-6-isopropoxypyridine-3,5-dicarbonitrile]: 161 to 162 °C.
In turn, `N#Cc1c(N)nc(Cl)c(C#N)c1-c1cccs1` [Example 372] displayed a melting point of 301 °C.
The same measure for `COc1nc(NC(=O)COC(C)=O)c(C#N)c(-c2ccccc2F)c1C#N` [Example 397, [3,5-dicyano-4-(2-fluorophenyl)-6-methoxypyridin-2-ylcarbamoyl]methyl acetate]: 151 to 153 °C.
The same measure for `COc1nc(NC(C)=O)c(C#N)c(-c2cccs2)c1C#N` [Example 19, N-(3,5-dicyano-6-methoxy-4-thiophen-2-ylpyridin-2-yl)acetamide]: 230 to 233 °C.
As for `COc1nc(NC(=O)C(C)C)c(C#N)c(-c2ccccc2F)c1C#N` [Example 405, N-[3,5-dicyano-4-(2-fluorophenyl)-6-methoxypyridin-2-yl]isobutyramide], the figure is 193 to 194 °C; as for `COc1nc(NC(=O)COc2ccccc2)c(C#N)c(-c2ccccc2F)c1C#N` [Example 398, N-[3,5-dicyano-4-(2-fluorophenyl)-6-methoxypyridin-2-yl]-2-phenoxyacetamide], 205 to 206 °C.
Take `COc1nc(N)c(C#N)c(-c2cc[nH]c2)c1C#N` [Example 66, 2-amino-6-methoxy-4-(1H-pyrrol-3-yl)pyridine-3,5-dicarbonitrile]: the melting point fell in the range of 235 to 237 °C.
The same measure for `COC(=O)CNc1nc(OC)c(C#N)c(-c2ccccc2)c1C#N` [Example 363, methyl [(3,5-dicyano-6-methoxy-4-phenylpyridin-2-yl)amino]acetate]: 140 to 141 °C.
